These results are taken from patent US6534637B2, “Synthesis of chlorophenol red glucuronic acid” (Beckman Coulter, Inc., priority 2001, dated 2003).

Data set [1] has as its target T1, purified β-glucuronidase (Sigma G-7896) (Escherichia coli, UniProt P05804).
T1 construct: purchased Sigma G-7896
Briefly: Enzyme assay: suitability of the substrate for detecting β-glucuronidase. The format is biochemical, E. coli. As to conditions: 50 MM sodium phosphate buffer, pH 7.0, 10 mM β-mercaptoethanol, 0.1% Triton X-100. Here is the method:
The suitability of the chlorophenol red β-D-glucuronic acid substrate (IVA) for detecting β-glucuronidase in a sample was tested following the procedure of Jefferson et al., PNAS (1986) Vol. 83, 8447-8451. The solid product (IVA) was dissolved in water to a final concentration of approximately 100 mM (red-orange product). An aliquot was added to 50 μM of purified β-glucuronidase (Sigma G-7896) in 50 MM sodium phosphate buffer, pH 7.0, 10 mM β-mercaptoethanol and 0.1% Triton X-100.

Data set [2] has as its target T2, E. coli α-D-Glucuronidase (Sigma, G7896) (Escherichia coli, UniProt P05804).
T2 construct: purchased Sigma G7896
Briefly: Sensitivity of GUD assay (reaction rates by OD, spectrophotometric). In kind it is biochemical. As for the experimental part: E. coli […] (Sigma, G7896) was diluted in PBS buffer containing 10 mM DTT and 0.1% Triton X-100 and either substrate p-nitrophenol glucuronide (Sigma N1627) or phenolsulphonphthaleinyl (or chlorophenol red) glucuronide of the present invention. The final concentration of each substrate was1 mM. The final concentration of GUD was 60 pM, 125 pM, 250 pM, 500 pM, or 1000 pM. Readings of Optical Density (OD) were measured at 415 nm for assay with p-nitrophenol glucuronide and at 574 nm for assay with chlorophenol red glucuronide. OD measurements were conducted over 30 minutes at 37° C. in a Beckman DU70 spectrophotometer and the reaction rates were determined in mOD/min. […] Therefore, the sensitivity of the GUD assay utilizing a substrate of the present invention as compared to the sensitivity of GUD assay with a conventional substrate.

The nature of data set [3]: Solubility of the GUD substrates (statement). The format is physicochemical. As to conditions: for liquid homogeneous assay formats.

T2 sequence (P05804 whole entry): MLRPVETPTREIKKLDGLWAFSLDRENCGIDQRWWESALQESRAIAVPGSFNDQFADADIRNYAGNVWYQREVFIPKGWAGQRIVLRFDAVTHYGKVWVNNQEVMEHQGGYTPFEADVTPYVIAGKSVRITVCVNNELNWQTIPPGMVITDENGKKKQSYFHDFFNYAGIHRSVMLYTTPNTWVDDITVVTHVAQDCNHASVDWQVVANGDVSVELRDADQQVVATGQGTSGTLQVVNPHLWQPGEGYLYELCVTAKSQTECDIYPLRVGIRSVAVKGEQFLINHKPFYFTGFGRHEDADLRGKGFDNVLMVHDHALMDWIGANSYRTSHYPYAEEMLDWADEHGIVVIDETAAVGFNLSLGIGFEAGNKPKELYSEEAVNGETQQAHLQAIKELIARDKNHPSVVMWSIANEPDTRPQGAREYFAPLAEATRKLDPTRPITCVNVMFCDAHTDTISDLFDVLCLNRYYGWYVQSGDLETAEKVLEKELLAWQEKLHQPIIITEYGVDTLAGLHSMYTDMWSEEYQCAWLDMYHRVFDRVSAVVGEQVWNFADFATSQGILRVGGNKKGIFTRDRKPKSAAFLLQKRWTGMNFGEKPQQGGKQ
T1 sequence (P05804 whole entry): as above

Regarding `O=C1C=C/C(=C(/c2ccc(OC3OC(C(=O)O)[C@@H](O)C(O)C3O)c(Cl)c2)c2ccccc2S(=O)(=O)[O-])C=C1Cl.[Na+]` (stereo partly drawn) [IVA, Chlorophenol Red β-D-Glucuronic Acid], the “Suitability as substrate: appearance of a violet product with absorbance maximum at 575 nm” value in data set [1] is “suitable for the detection of β-glucuronidase”. The “Reaction rate (mOD/min) relative to the nitrophenol-glucuronide substrate” value in data set [2] (each substrate 1 mM, GUD 60-1000 pM, 37° C., 30 minutes, OD at 574 nm vs 415 nm) is 5.76 fold. The “Signal intensity relative to nitro-phenol glucuronide (FIG. 1)” value in data set [2] (identical amounts of GUD added to each substrate) is listed as “about six-fold”. Moreover, the Solubility entry in data set [3] is listed as “highly soluble”.
